The conditions of data set [1]: cited from earlier work.
The conditions of data set [2]: in vivo; cited from earlier work.
Another data set concerns E. coli ATCC 25922. Nature of the data set: Animal efficacy, rat lung infection, aerosol administration. Format: in vivo. The note with it: aerosol administration of a 40 mg/mL solution of tobramycin alone (FIG. 18). The protocol: The in vivo efficacy of aerosolized fosfomycin alone, tobramycin alone and combinations of fosfomycin plus tobramycin were evaluated against E. coli ATCC 25922 and P. aeruginosa ATCC 27853 in rat lungs. The bacterial inoculum used to establish the rat lung infections consisted of a mixture of bacteria and agarose beads. E. coli ATCC 25922 or P. aeruginosa ATCC 27853 was streaked onto blood agar plates and incubated for 18-24 hours at 35° C. Two to three colonies were inoculated into 10 mL Tryptic Soy Broth (hereafter referred to as TSB) and incubated statically at 35° C. for 1.5 to 2 hours. The culture was adjusted to an optical density of 0.1 (625 nm) in fresh TSB and then diluted 1:5 in TSB. One milliliter of bacterial suspension (approximately 10^7 CFU/mL) was added to 10 mL of a 2% noble agar solution and briefly mixed by inversion. The mixture was added to 150 mL of heavy white mineral oil equilibrated to 55° C. and stirred on ice for 5 minutes. The cooled suspension was poured into a 250 mL centrifuge tube and centrifuged at 3,000 rpm, 4° C., for 10 minutes. The supernatant was decanted off, the pellet resuspended in 25 mL of normal sterile saline, and transferred to a 50 mL conical centrifuge tube. […]
Bacterial killing was evaluated 18 hours after the last exposure. […] The lungs were removed aseptically, excess tissue removed and the lung weight determined. […]

For data set [3] the following is noted: in vivo; cited from earlier work. The source holds these as a separate data set.
In data set [4] the test system is E. coli, Proteus spp., Salmonella spp., Shigella spp., and S. marcescens. The note with it: Forsgren and Walder, 1983; cited from earlier work.

The source of these data is patent US8980226B2, “Aerosolized fosfomycin/aminoglycoside combination for the treatment of bacterial respiratory infections” (Gilead Sciences, Inc., priority 2004, dated 2015).

As for `NC[C@H]1O[C@H](O[C@H]2[C@H](O)[C@@H](O[C@H]3O[C@H](CO)[C@@H](O)[C@H](N)[C@H]3O)[C@H](N)C[C@@H]2N)[C@H](N)C[C@@H]1O` [Tobramycin], in data set [1] (aerosol administration), the sputum levels was at least 1000 µg/mL. Moreover, the oral absorption entry in data set [1] (in vivo, po) is given as “poorly absorbed orally”. Further, the plasma half-life in data set [1] (parenteral administration) is 1 to 2 h. Moreover, the prevalence of nephrotoxicity in data set [2] is 31-42%. For the same compound, the “killing of E. coli in the rat lung” value in the data set with E. coli ATCC 25922 amounted to 2 log 10.

For the compound `C[C@@H]1O[C@@H]1P(=O)(O)O` [Fosfomycin], in data set [3], the “concentrations in normal lung” value is 1 to 13 µg/mL, the peak serum concentrations is 25 to 95 µg/mL and the “time of peak serum concentrations” value was 1 to 2 h. In data set [4], the “fosfomycin concentrations at which the species are generally inhibited” value is at most 64 µg/mL.
